# Columns and labels:
# [1] = test system: healthy subjects; assay: Multiple ascending dose study in healthy subjects: blood lymphocyte levels; assay type: in vivo, human
# Protocol: For example in tests on healthy subjects, the maximum percent decrease (geometric mean, 95% confidence interval) from pre-dose blood lymphocyte levels during once daily dosing of compound A for 14 days (28 days for the 2 mg dose level) in healthy subjects was 39% for 0.3 mg, 65% for 0.6 mg, 74% for 1.2 mg, 83% for 2 mg and 77% for 3 mg. The corresponding reduction in the placebo group was 29%, which may be explained by the normal lymphocyte level variability and the definition of the endpoint.
# (§1) Multiple ascending doses of compound A were investigated in healthy subjects. 60 subjects in 5 cohorts (12 subjects per cohort) were dosed at 0.3 mg, 0.6 mg, 1.2 mg and 3 mg once daily for 14 days and at 2 mg for 28 days. In each cohort, subjects were randomised between compound A (9 subjects) and placebo (3 subjects).
# [2] = test system: healthy subjects; assay: Multiple ascending dose study in healthy subjects: effect on heart rate (Example 1); assay type: in vivo, human; conditions: 0.3, 0.6, 1.2, 2 and 3 mg once daily, hourly average heart rate, FIG. 1
# Protocol: The effect on heart rate of 2-amino-2-[4-(3-benzyloxyphenylthio)-2-chlorophenyl]ethyl propane-1,3-diol (Compound A, or KRP203) was measured in healthy subjects over a period of 28 days and compared to placebo.
# as §1
# The day 28 graphic compares placebo and 2 mg dose.
# [3] = test system: healthy male volunteers; assay: Double blind, placebo controlled, dose titration, once daily multiple oral dose study (Example 2); assay type: in vivo, human; conditions: for hourly minimum HR (heart rate) change from baseline: FIG. 3
# Protocol: A total of 56 healthy male volunteers were enrolled in a double blind, parallel, placebo controlled, dose titration, once daily, multiple oral dose study. 53 (95%) subjects completed the study.
# Increasing doses of 2-amino-2-[4-(3-benzyloxyphenylthio)-2-chlorophenyl]ethyl-propane-1,3-diol (Compound A) starting at 0.3 mg o.d. or 0.5 mg o.d. and ending at the maximal therapeutic dose of 2 mg o.d. were administered to the subjects as specified in Table 1 below.
# Each subject participated in a maximal 21-day Screening period, a Baseline period (Day −2), Run-in period (Day −1), a 21-day treatment period, 14-day Follow up period (with a Follow up visit on Day 35) and study completion assessments on Day 42. Subjects were assigned to one of the four groups (#1 or #2 dose titration group, placebo- or fixed-dose group) and received the once daily (o.d.) treatment in a double blinded manner.
# On Day -1 (Run-in), all subjects received placebo and underwent baseline assessments including 24 hour Holter monitoring.
# All the study drugs were administered between 8:00 and 8:30, immediately after modest breakfast started 30 min prior to dosing. Dosing was performed as closely as practically possible between the subjects (e.g. within 15 min).
# The primary variable, the daily number of bradycardia episodes as defined in the primary objective, were modeled by means of a repeated Poisson model adjusted for the number of bradycardia episodes at Baseline, the day, the treatment, and the treatment-by-day interaction. Generalized Estimating Equations were used to estimate the parameters of the model, including the mean (and 95% CI) number of bradycardia episodes for each treatment group on each day.
# The primary objective of the study was assessed from the estimated ratio, obtained from the model above, between the mean number of bradycardia episodes on each ‘dose increase day’ in each titration regimen versus the mean number of bradycardia episodes on Day 1 in the fixed-dose group, and from the 95% CI for this ratio.
# The treatment effect in term of other measures of bradycardia, including the change from baseline in hourly (daily) minimum and mean heart rates, was also investigated using an appropriate model.
# [4] = test system: healthy subjects; conditions: 1.25 mg of FTY720; cited from earlier work
smiles,measurement,setting,value
"NC(CO)(CO)CCc1ccc(Sc2cccc(OCc3ccccc3)c2)cc1Cl [Compound A, 2-amino-2-[4-(3-benzyloxyphenylthio)-2-chlorophenyl]ethyl-propane-1,3-diol]",maximum percent decrease (geometric mean) from pre-dose blood lymphocyte levels,[1]; 0.3 mg once daily for 14 days,39%
same,maximum percent decrease (geometric mean) from pre-dose blood lymphocyte levels,[1]; 0.6 mg once daily for 14 days,65%
same,maximum percent decrease (geometric mean) from pre-dose blood lymphocyte levels,[1]; 1.2 mg once daily for 14 days,74%
same,maximum percent decrease (geometric mean) from pre-dose blood lymphocyte levels,[1]; 2 mg once daily for 28 days,83%
same,maximum percent decrease (geometric mean) from pre-dose blood lymphocyte levels,[1]; 3 mg once daily for 14 days,77%
same,decrease in heart rate following dosing,[2],observed to increase with increasing dosage
same,hourly minimum HR (heart rate) change from baseline,"[3]; after Day 13, all subjects",no decrease in HR compared to matched baseline
same,safety and tolerability,[3]; both titration regimens,safe and well tolerated
same,AE (adverse events) profile,[3]; dose titration groups versus placebo,No discernable difference
same,hourly minimum HR (heart rate) change from baseline,[3]; fixed dose regimen 2 mg o.d.,maximum decrease in HR on Days 1 & 2 compared to the 2 titration regimens and resolved by day 5
same,number of bradycardia episodes per day,"[3]; titration regimens T#1 and T#2 versus fixed dose 2 mg day 1, FIG. 2",Both titration regimens had less bradycardic episodes compared to fixed dose day 1
same,SAEs (severe adverse events),"[3]; titration study, 21-day treatment",No SAEs (severe adverse events) were reported
CCCCCCCCc1ccc(CCC(N)(CO)CO)cc1 [FTY720],decrease in heart rate,[4],approximately 8 beats/min

# — patent US20180161290A1, “Dosage Regimen of Diaryl Sulfide Derivatives” (Novartis AG, priority 2010, published 2018)
